According to US8026255B2, “Substituted piperidines as somatostatin receptor subtype 5 (SSTR5) antagonists” (Hoffman-La Roche Inc., priority 2006, dated 2011):

Target: T1, human subtype 5 somatostatin receptor (Homo sapiens, UniProt P35346)
T1 construct: host or cells: CHO cells, stably transfected; membranes prepared from them
Assay: SSTR5 radioligand binding assay (membranes of transfected CHO cells, 125I-labeled 11-Tyr somatostatin-14 tracer)
Settings: CHO cell membranes, Ki calculated from IC50 by Cheng-Prussoff equation
Experimental: A CHO cell line stably transfected with a plasmid encoding the human subtype 5 somatostatin receptor (GenBank accession number D16827) was obtained from Euroscreen. Cells were cultured and used for binding and functional assays.
Membranes of these cells were prepared by sonication in the presence of protease inhibitors and subsequent fractionating centrifugation. The protein concentration in the membrane preparation was determined using a commercial kit (BCA kit, Pierce, USA). Membranes were stored at −80° C. until use. After thawing, membranes were diluted in assay buffer (50 mM Tris-HCl at pH 7.4, 5 mM MgCl2 and 0.20% BSA) and subjected to dounce homogenization.
For binding studies, 0.1 mL membrane suspension, corresponding to app. 6×10^−15 mol receptor, was incubated for 1 h at room temperature with 0.05 nM ^125I-labeled tracer (11-Tyr somatostatin-14, Perkin-Elmer) and either test compounds in varying concentrations or, for the determination of non-specific binding, 0.001 mM non-labeled somatostatin-14. The incubation was stopped by filtration through GF/B glassfiber filters and washing with ice-cold wash buffer (50 mM Tris-HCl at pH 7.4). The bound radioactivity was measured after application of a scintillation cocktail (Microscint 40) and expressed as disintegrations per minute (dpm).
The receptor concentration was determined in a prior saturation experiment where a fixed, arbitrary amount of membranes was incubated with a concentration range of radio-labeled tracer. This allows estimating the total number of specific binding sites per amount of protein (i.e., Bmax), typically between 1 and 5 pmol/mg.
The concentration of the test compound required to result in half maximal inhibition of binding of the radio-labeled tracer (IC50) was estimated from a concentration-versus-dpm graph. The binding affinity (Ki) was calculated from the IC50 by applying the Cheng-Prussoff equation for single binding sites.

T1 sequence (P35346 whole entry): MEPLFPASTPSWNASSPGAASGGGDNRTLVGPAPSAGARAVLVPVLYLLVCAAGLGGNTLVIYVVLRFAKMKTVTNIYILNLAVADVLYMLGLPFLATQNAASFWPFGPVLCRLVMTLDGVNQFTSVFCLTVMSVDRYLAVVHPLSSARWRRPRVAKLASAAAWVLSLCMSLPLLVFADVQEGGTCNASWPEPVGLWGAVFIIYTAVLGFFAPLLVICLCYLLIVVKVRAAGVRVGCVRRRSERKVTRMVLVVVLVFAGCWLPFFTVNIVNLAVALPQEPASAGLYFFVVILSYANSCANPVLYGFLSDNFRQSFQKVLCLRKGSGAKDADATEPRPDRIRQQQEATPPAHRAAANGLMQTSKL

Row | Ki | Compound
1 | 789 nM | CCOc1cc(CN2CCC(Nc3nc(C)c(-c4ccccc4)cc3C#N)CC2)ccc1OC [Example 24, 2-[1-(3-ethoxy-4-methoxy-benzyl)-piperidin-4-ylamino]-6-methyl-5-phenyl-nicotinonitrile]
2 | 7 nM | CCOc1cc(CN2CCC(Nc3ccc4ccccc4n3)CC2)cc(OCC)c1F [Example 103, [1-(3,5-diethoxy-4-fluoro-benzyl)-piperidin-4-yl]-quinolin-2-yl-amine]
3 | 86 nM | CCOc1cc(CN2CCC(Nc3cnc(C(N)=O)cn3)CC2)ccc1Cl [Example 205, 5-[1-(4-Chloro-3-ethoxy-benzyl)-piperidin-4-ylamino]-pyrazine-2-carboxylic acid amide]
